Data as given in patent US11174250B2, “Substituted carboxamides as inhibitors of WDR5 protein-protein binding” (PROPELLON THERAPEUTICS INC., priority 2016, dated 2021).
Read-outs that look alike come from different tables or passages of the source.

Tests used:
[1] = system: H3K4 dimethylation (H3K4me2) in T24 cells; experiment: Detection of in-cell H3K4 dimethylation (AlphaLisa); format: cell-based; conditions: Homo sapiens, T-24, 120 h, five days
Method: T24 cells were seeded into a 96-well plate at 400 cells/well in 150 μl medium (McCoy 5A containing 10% FBS, 100 μg/ml Normocin, and 50 μg/ml Gentamycin, Invitrogen). A HP D300 digital dispenser was used to dose cells with DMSO or test compounds across a 10-point range of concentrations (high dose of 10 μM), and cultures were grown in a humidified 5% CO2 incubator at 37° C. After five days, plates were removed from incubator, media was aspirated, and the cells washed in PBS. Cell lysis, histone extraction, and detection of H3K4 dimethylation (H3K4me2) were performed using an AlphaLisa kit according to the manufacturer's instructions (Perkin Elmer). Signal was measured using an Envision plate reader.

MLL1-WRAD2 complex = MLL1-WRAD2 complex (Homo sapiens (Human), UniProt P61964); experiment: MLL1-WRAD2 enzyme assay (in vitro methyl transferase assay); format: biochemical; conditions: MLL1-WRAD2 assay; read-out: In vitro MLL1 activity (IC50)
Method: Reaction was initiated with 1 μM 3H-SAM and incubated for 1 hour at 30° C. Reaction mixture was transferred to P81 filter-paper and washed with PBS before detection.

MV4-11 cells = experiment: Cell proliferation assay (ATPlite); format: cell-based; conditions: Homo sapiens, MV4-11, 120 h; MV-411 cells, five days; read-out: In vitro whole cell potency in MV-411 cells, (IC50)
Method: MV4-11 cells were seeded into a 96-well plate at 1,000 cells/well in 150 μl medium (Alpha-MEM containing 10% FBS, 100 μg/ml Normocin, and 50 μg/ml Gentamycin, Invitrogen). A HP D300 digital dispenser was used to dose cells with DMSO or test compounds across a 10-point range of concentrations (high dose of 10 μM), and cultures were grown in a humidified 5% CO2 incubator at 37° C. After five days, plates were removed from incubator and equilibrated to room temperature. An equal volume of ATPlite assay reagent was added to each well, and samples were processed according to manufacturer's instructions (Perkin Elmer). Luminescent signal was measured using an Envision plate reader equipped with a US-Luminescence detector.

WDR5 protein = WDR5 protein (Homo sapiens (Human), UniProt P61964); experiment: Surface Plasmon Resonance (SPR) assay; format: binding; conditions: SPR; for residence time: τ=1/koff, read-out: Residence Time (t, min)
Method: Exemplary compounds of the application were dissolved in 100% DMSO at 10 mM, assayed fresh, and then stored at −20° C. for repeat studies and other experiments. Full length WDR5 with an N-terminal His tag and C-terminal AviTag (Avidity Inc.) was expressed in E. coli with coexpression of BirA to biotin label the protein in vivo. Purification was via Ni-NTA. The purified WDR5 protein has a molecular weight of 41976 Da.
SPR studies were performed using a Biacore™ T200 instrument (GE Health Sciences Inc.). Biotinylated WDR5 protein (approximately 3000RU) was stably captured to streptavidin coupled SA chips according to the manufacture's protocol (GE Health Sciences Inc.). The running buffer used was HBS-EP (20 mM Hepes pH 7.4, 150 mM NaCl, 3 mM EDTA, 0.05% P-20) plus 5% DMSO with a flow rate of 40p1/min. For SPR analysis, 5 different concentrations of each exemplary compound of the application were sprayed into 96 or 384 well plates using an HP D300 digital dispenser. […] Curve fitting and KD calculations were performed with the Biacore T200 Evaluation software (GE Health Sciences Inc).

[2] = Table 1, read-out: WDR5 binding affinity (KD)
[3] = Table 2, read-out: WDR5 binding affinity SPR (KD)

IC50 [1] [nM]	IC50 (MLL1-WRAD2 complex) [nM]	IC50 (MV4-11 cells) [nM]	Kd (WDR5 protein; [2]) [nM]	Kd (WDR5 protein; [3]) [nM]	residence time (WDR5 protein) [min]	Structure (SMILES)
952	939	634				CN1CCN(c2ccc(-c3cc(CN4CCOCC4)ccc3F)cc2NC(=O)c2c[nH]c(=O)cc2C(F)(F)F)CC1 [Example 2, N-(2′-fluoro-4-(4-methylpiperazin-1-yl)-5′-(morpholinomethyl)-[1,1′-biphenyl]-3-yl)-6-oxo-4-(trifluoromethyl)-1,6-dihydropyridine-3-carboxamide]
	> 30000	> 10000	6.3	17.5	0.78	CC1CN(c2ccc(-c3cc(C(=O)NC4CCCCC4)ccc3F)cc2NC(=O)c2c[nH]c(=O)cc2C(F)(F)F)CCN1C (stereo not drawn) [Example 81, N-(5′-(cyclohexylcarbamoyl)-4-(3,4-dimethylpiperazin-1-yl)-2′-fluoro-[1,1′-biphenyl]-3-yl)-6-oxo-4-(trifluoromethyl)-1,6-dihydropyridine-3-carboxamide]
	549	536	0.7	0.7	23	C[C@@H]1CN(c2ccc(-c3ccc(OCC4CC4)nc3F)cc2NC(=O)c2c[nH]c(=O)cc2C(F)(F)F)C[C@H](C)N1C [Example 82, N-(5-(6-(cyclopropylmethoxy)-2-fluoropyridin-3-yl)-2-((3R,5S)-3,4,5-trimethylpiperazin-1-yl)phenyl)-6-oxo-4-(trifluoromethyl)-1,6-dihydropyridine-3-carboxamide]
	49	87	3	3.1	11.6	C[C@@H]1CN(c2ccc(-c3nc(N4CCOCC4)ncc3F)cc2NC(=O)c2c[nH]c(=O)cc2C(F)(F)F)C[C@H](C)N1C [Example 125, N-(5-(5-fluoro-2-morpholinopyrimidin-4-yl)-2-((3S,5R)-3,4,5-trimethylpiperazin-1-yl)phenyl)-6-oxo-4-(trifluoromethyl)-1,6-dihydropyridine-3-carboxamide]
